Assay results published in patent US20240277798A1, “CYCLOSPORINE COMPOSITIONS AND METHODS OF USE” (Bacainn Biotherapeutics, Ltd., priority 2021, published 2024).
Where “and” joins values, the source holds several entries; their conditions need not be identical. Identical values can stand only once.

Legend:
[1] = target: T1, FPR1 (Homo sapiens, UniProt P21462); assay: Inhibition of FPR1 measured as inhibition of fMLP-induced neutrophil transmigration across T84 monolayer; type: cell-based; settings: FIG. 3B
T1 construct: endogenous in cells; host or cells: freshly isolated human neutrophils (PMNs), migrating across a T84 epithelial monolayer
T1 sequence (P21462 1-350): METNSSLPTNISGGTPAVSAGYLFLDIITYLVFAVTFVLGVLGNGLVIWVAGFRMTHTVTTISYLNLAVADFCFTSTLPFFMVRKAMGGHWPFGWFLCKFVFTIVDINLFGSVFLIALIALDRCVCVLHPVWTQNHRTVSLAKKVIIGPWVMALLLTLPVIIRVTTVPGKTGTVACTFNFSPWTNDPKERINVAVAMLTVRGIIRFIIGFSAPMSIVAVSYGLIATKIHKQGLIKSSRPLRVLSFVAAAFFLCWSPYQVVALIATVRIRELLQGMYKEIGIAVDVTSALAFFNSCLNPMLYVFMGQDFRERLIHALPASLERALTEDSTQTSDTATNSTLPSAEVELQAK
Procedure: T84 colorectal cancer cells were grown to confluence on the bottom side of 12 well polycarbonate membrane inserts of a 24 well Transwell® plate. The confluent growth of these epithelial cells results in physiologically-relevant apical (luminal) and basolateral surfaces in the transwells. Freshly isolated and prepared human neutrophils were pretreated in compound (BT051 or cyclosporine A) for 1 hour on ice.
BT051 or cyclosporine A was added to the apical surface of the monolayer. The potent neutrophil chemoattractant, N-formyl-methionyl-leucyl-phenylalanine (fMLP) (100 nM), which activates neutrophil migration via its interaction with the FPR1 protein on neutrophils, was also added to the apical side of the monolayer. The compound-treated neutrophils were then added to the basolateral side and allowed to transmigrate through the monolayer for 2 hours. The number of neutrophils migrated to the apical chamber (due to the fMLP gradient) was then assayed by determination of myeloperoxidase activity (a neutrophil biomarker). Inhibition of transmigration is indicated by lower MPO activity in the apical chamber.
T84 colorectal cancer cells are grown to confluence on the bottom side of 12 well polycarbonate membrane inserts of a 24 well Transwell® plate. The confluent growth of these epithelial cells results in physiologically-relevant apical (luminal) and basolateral surfaces in the transwells. […]

[2] = Amount excreted in feces after oral dosing in rats; type: in vivo, Sprague-Dawley rats; settings: rat, individual animals
[3] = BT070 10 mg/kg orally, 0-24 h, 10 mg/kg

SMILES: CC[C@@H]1NC(=O)[C@H]([C@H](O)[C@H](C)CCCCCC(=O)O)N(C)C(=O)[C@H](C(C)C)N(C)C(=O)[C@H](CC(C)C)N(C)C(=O)[C@H](CC(C)C)N(C)C(=O)[C@@H](C)NC(=O)[C@H](C)NC(=O)[C@H](CC(C)C)N(C)C(=O)[C@H](C(C)C)NC(=O)[C@H](CC(C)C)N(C)C(=O)CN(C)C1=O [BT070]
- inhibition of PMN transmigration/activation ([1]; concentration not given): approximately 50%
- fMLP-mediated PMN transmigration/activation ([1]; result in words): inhibit
- Amount in feces ([2]; BT070 10 mg/kg orally, 0-4 h): 561.4 ng
- % of dose excreted unchanged in feces [2, 3]: 44.6% and 9.0% and 72.2%
- Total amount excreted unchanged in feces [2, 3]: 1212482.2 ng and 252675.5 ng and 1891835.1 ng
- Amount in feces ([2]; BT070 10 mg/kg orally, 4-8 h, 10 mg/kg): 181805.0 ng and 875239.4 ng
- Amount in feces ([2]; BT070 10 mg/kg orally, 8-24 h, 10 mg/kg): 1030677.2 ng and 252114.1 ng and 1016595.6 ng
- Total amount excreted in feces ([2]; BT070 as breakdown product after BT051 10 mg/kg orally, 0-48 h): 36.9 µg and 33.4 µg and 41.4 µg and 38.5 µg
- Amount in feces ([2]; BT070 as breakdown product after BT051 10 mg/kg orally, 8-24 h): 31200 ng and 14300 ng and 10600 ng and 34800 ng
- Amount in feces ([2]; BT070 as breakdown product after BT051 10 mg/kg orally, 24-48 h): 5700 ng and 19100 ng and 30800 ng and 3700 ng
